Consider four compounds from ChEMBL document CHEMBL1146788, “Synthesis and biological evaluation of novel beta-carboline derivatives as Tat-TAR interaction inhibitors” (Bioorg Med Chem Lett, 2004).

Each structure is given as a SMILES string.

In assay [1] the test system is MT4. Briefly: Concentration required to protect MT-4 cells against the cytopathogenicity of HIV-1 IIIB. It is filed as functional, cell-based. The conditions noted are these: Homo sapiens. Background: Damage to the host cells serves as the signal in cytopathic effect assays.
The subject of assay [2] is MT4. Briefly: Concentration required to inhibit the proliferation of uninfected MT-4 cells. It is filed as functional. The settings on record: Homo sapiens.

In turn, `Cc1[nH]c(C(=O)NCCCN)cc2c3ccccc3nc1-2` displayed a 50% effective concentration (EC50) with MT4 [1] of over 100 µM. The compound also showed a CC50 in the assay with MT4 [2] of over 100 µM.
For `N=C(N)NCCCNC(=O)c1cc2c3ccccc3nc-2c[nH]1`, in the assay with MT4 [1], the EC50 was at least 50 µM. In the assay on MT4 [2], this compound showed a CC50 of over 1000 µM.
The matching figures for `Cc1[nH]c(C(=O)NCCCN=C(N)N)cc2c3ccccc3nc1-2`: at least 50 µM and over 100 µM.
In the assay with MT4 [1], `NCCCNC(=O)c1cc2c3ccccc3nc-2c[nH]1` gave an EC50 of over 1000 µM. Also, the CC50 in the assay on MT4 [2] was over 1000 µM.

The term EC50 denotes the concentration needed to bring the measured effect to its halfway point. A low value points to greater potency. As a reminder, the CC50 is the concentration at which the toxic effect on the cells reaches its halfway point.
